SMILES strings stand for the structures. Counter-ions that a name gives are not always drawn.

Drawing on patent US10098883B2, “(Aza)pyridopyrazolopyrimidinones and indazolopyrimidinones and their use” (BAYER PHARMA AKTIENGESELLSCHAFT, priority 2013, dated 2018), this text covers IC50 for 31 compounds.

The subject of the first assay is clot lysis (fibrinolysis) in human citrated plasma, tPA-induced. Kind of assay: Plasma-based clot lysis assay (5%). It counts as biochemical. To be noted: diluted human citrated plasma (platelet-poor, 5%), fibrinogen 3 μM, CaCl2 10 mM, tPA 0.2 nM, 37° C., OD 405 nm. On the procedure: B-2. Plasma-based Clot Lysis Assay (5%)
The clot-lysis test system configures the kinetics of clot formation and degradation in vitro and allows quantifying modulation of the process by selected test compounds.
The test compounds were dissolved in 1% acetic acid and further complemented with an equal volume of DMSO. The resulting stock solutions were serially diluted in 0.5% acetic acid/50% DMSO. 1 μL aliquots of these solutions were placed into 384 well microplates (Greiner, black, transparent bottom), followed by 30 μL of diluted human citrated plasma (platelet-poor, final concentration: 5%; supplemented with fibrinogen, final concentration: 3 μM; dilution buffer: 20 mM HEPES, 150 mM NaCl, 0.01% Brij (pH 7)). The reactions were started by addition of […] of CaCl2 (final concentration: 10 mM), and tPA (tissue plasminogen activator, final concentration: 0.2 nM) in dilution buffer, followed by an additional volume of 20 μL dilution buffer for improved mixing. The reactions were incubated at 37° C. Clot formation and degradation was monitored spectrophotometrically by kinetic optical density measurements at 405 nm. IC50 values were determined by comparing the resulting time courses with the time course of a blank control reaction.
`O=c1cc(C2CCNCC2)n2nc3cccc(C(F)(F)F)c3c2[nH]1` [Example 12, 4-(Piperidin-4-yl)-10-(trifluoromethyl)pyrimido[1,2-b]indazol-2(1H)-one hydrochloride] displayed an IC50 of 0.032 µM. `Cc1ccc2nn3c(C4CCNCC4)cc(=O)[nH]c3c2c1Br` [Example 74, 10-Bromo-9-methyl-4-(piperidin-4-yl)pyrimido[1,2-b]indazol-2(1H)-one hydrochloride] yielded an IC50 of 0.015 µM. Same read-out and setting: to `CC(C)(C)c1ccc2c(n1)nn1c(C3CCNCC3)cc(=O)[nH]c21` [Example 13, 8-tert-Butyl-4-(piperidin-4-yl)pyrido[2′,3′:3,4]pyrazolo[1,5-a]pyrimidin-2(1H)-one hydrochloride] belongs 0.031 µM.

In turn, `O=c1cc(C2CCNCC2)n2nc3cccc(-c4ccccn4)c3c2[nH]1` [Example 82, 4-(Piperidin-4-yl)-10-(pyridin-2-yl)pyrimido[1,2-b]indazol-2(1H)-one hydrochloride] came in with an IC50 of 0.02 µM. This IC50 lies about 1.6-fold lower than the previous one. `O=c1cc(C2CCNCC2)n2nc3ccc(I)cc3c2[nH]1` [Example 48, 9-Iodo-4-(piperidin-4-yl)pyrimido[1,2-b]indazol-2(1H)-one hydrochloride] displayed an IC50 of 0.036 µM. On to `Cn1nccc1-c1cccc2nn3c(C4CCNCC4)cc(=O)[nH]c3c12` [Example 86, 10-(1-Methyl-1H-pyrazol-5-yl)-4-(piperidin-4-yl)pyrimido[1,2-b]indazol-2(1H)-one hydrochloride], for which half-maximal inhibition (IC50) was put at 0.015 µM. Take `O=c1cc(C2CCNCC2)n2nc3ccc(C(F)(F)F)cc3c2[nH]1` [Example 2, 4-(Piperidin-4-yl)-9-(trifluoromethyl)pyrimido[1,2-b]indazol-2(1H)-one hydrochloride]: the IC50 amounted to 0.03 µM. `O=c1cc(C2CCNCC2)n2nc3ccc(Br)cc3c2[nH]1` [Example 19, 9-Bromo-4-(piperidin-4-yl)pyrimido[1,2-b]indazol-2(1H)-one hydrochloride] gave an IC50 of 0.026 µM. Turning to `O=c1cc(C2CCNCC2)n2nc3ccc(F)cc3c2[nH]1` [Example 7, 9-Fluoro-4-(piperidin-4-yl)pyrimido[1,2-b]indazol-2(1H)-one hydrochloride], the IC50 is 0.095 µM. Regarding `CC(C)Oc1cccc2nn3c(C4CCNCC4)cc(=O)[nH]c3c12` [Example 76, 10-Isopropoxy-4-(piperidin-4-yl)pyrimido[1,2-b]indazol-2(1H)-one hydrochloride], the IC50 amounted to 0.015 µM.

`O=c1cc(C2CCNCC2)n2nc3cccc(-n4cccn4)c3c2[nH]1` [Example 96, 4-(Piperidin-4-yl)-10-(1H-pyrazol-1-yl)pyrimido[1,2-b]indazol-2(1H)-one hydrochloride] returned an IC50 of 0.026 µM. Regarding `CC1CC(c2cc(=O)[nH]c3c4c(Cl)cccc4nn23)CCN1` (single isomer, unassigned; (+)) [Example 101, (+)-Cis-10-Chloro-4-(2-methylpiperidin-4-yl)pyrimido[1,2-b]indazol-2(1H)-one hydrochloride [Enantiomerically Pure Cis-Isomer]], the IC50 was 0.035 µM. This IC50 and that of the compound before are within 1.5-fold of each other.

Turning to `O=c1cc(C2CCNCC2)n2nc3ccccc3c2[nH]1` [Example 1, 4-(Piperidin-4-yl)pyrimido[1,2-b]indazol-2(1H)-one hydrochloride], the IC50 turned out to be 0.051 µM. In the case of `O=c1cc(C2CCNCC2)n2nc3cccc(-c4ccncc4)c3c2[nH]1` [Example 59, 4-(Piperidin-4-yl)-10-(pyridin-4-yl)pyrimido[1,2-b]indazol-2(1H)-one hydrochloride], the IC50 is 0.016 µM. On the same count and under the same terms, as for `O=c1cc(C2CCNCC2)n2nc3cccnc3c2[nH]1` [Example 9, 7-(Piperidin-4-yl)pyrido[3′,2′:3,4]pyrazolo[1,5-a]pyrimidin-9(10H)-one hydrochloride], the figure is 0.036 µM. In turn, `O=c1cc(C2CCNCC2)n2nc3cccc(-c4cccnc4)c3c2[nH]1` [Example 58, 4-(Piperidin-4-yl)-10-(pyridin-3-yl)pyrimido[1,2-b]indazol-2(1H)-one hydrochloride] gave an IC50 of 0.015 µM.

In turn, `COc1ccc(-c2cccc3nn4c(C5CCNCC5)cc(=O)[nH]c4c23)cc1` [Example 54, 10-(4-Methoxyphenyl)-4-(piperidin-4-yl)pyrimido[1,2-b]indazol-2(1H)-one hydrochloride] had an IC50 of 0.015 µM. `Cc1ccc(Br)c2c1nn1c(C3CCNCC3)cc(=O)[nH]c21` [Example 75, 10-Bromo-7-methyl-4-(piperidin-4-yl)pyrimido[1,2-b]indazol-2(1H)-one hydrochloride] came in with an IC50 of 0.016 µM. On to `O=c1cc(C2CCNCC2)n2nc3cc(Br)ccc3c2[nH]1` [Example 21, 8-Bromo-4-(piperidin-4-yl)pyrimido[1,2-b]indazol-2(1H)-one hydrochloride], for which the IC50 is 0.03 µM.

The compound `O=c1cc(C2CCNCC2)n2nc3cccc(-c4c(F)cccc4F)c3c2[nH]1` [Example 78, 10-(2,6-Difluorophenyl)-4-(piperidin-4-yl)pyrimido[1,2-b]indazol-2(1H)-one hydrochloride] came in with an IC50 of 0.015 µM. This IC50 lies about 2-fold lower than the previous one.

`O=c1cc(C2CCNCC2)n2nc3ncc(-c4ccccc4)cc3c2[nH]1` [Example 45, 9-Phenyl-4-(piperidin-4-yl)pyrido[2′,3′:3,4]pyrazolo[1,5-a]pyrimidin-2(1H)-one hydrochloride] displayed an IC50 of 0.037 µM. With `O=c1cc(C2CCNCC2)n2nc3nccnc3c2[nH]1` [Example 38, 7-(Piperidin-4-yl)pyrazino[2′,3′:3,4]pyrazolo[1,5-a]pyrimidin-9(10H)-one hydrochloride], the half-maximal inhibitory concentration (IC50) was found to be 0.06 µM. Still for that read-out and setting: as for `O=c1cc(C2CCNCC2)n2nc3cc(Cl)ccc3c2[nH]1` [Example 39, 8-Chloro-4-(piperidin-4-yl)pyrimido[1,2-b]indazol-2(1H)-one hydrochloride], the figure is 0.024 µM; as for `CC(C)c1cccc2nn3c(C4CCNCC4)cc(=O)[nH]c3c12` [Example 62, 10-Isopropyl-4-(piperidin-4-yl)pyrimido[1,2-b]indazol-2(1H)-one hydrochloride], 0.018 µM; as for `O=c1cc(C2CCNCC2)n2nc3ccc(F)c(-c4ccccc4)c3c2[nH]1` [Example 77, 9-Fluoro-10-phenyl-4-(piperidin-4-yl)pyrimido[1,2-b]indazol-2(1H)-one hydrochloride], 0.011 µM.

Compound `O=c1cc(C2CCNCC2)n2nc3cccc(-n4nccn4)c3c2[nH]1` [Example 98, 4-(Piperidin-4-yl)-10-(2H-1,2,3-triazol-2-yl)pyrimido[1,2-b]indazol-2(1H)-one hydrochloride] gave an IC50 of 0.027 µM. Against the preceding compound, the IC50 is about 2.5-fold higher. On the same count and under the same terms, as for `O=C(O)c1cccc2nn3c(C4CCNCC4)cc(=O)[nH]c3c12` [Example 106, 2-oxo-4-(piperidin-4-yl)-1,2-dihydropyrimido[1,2-b]indazole-10-carboxylic acid hydrochloride], the figure is 0.42 µM.

Still in this assay, the particulars now being: diluted human citrated plasma (platelet-poor, 5%), fibrinogen 3 μM, CaCl2 10 mM, tPA 0.2 nM, 37° C., OD 405 nm; hydrochloride.
`C[C@H]1C[C@H](c2cc(=O)[nH]c3c4c(Cl)cccc4nn23)CCN1` [Example 68, (−)-trans-10-Chloro-4-(2-methylpiperidin-4-yl)pyrimido[1,2-b]indazol-2(1H)-one hydrochloride] gave an IC50 of 0.025 µM. Still for that read-out and setting: as for `N#Cc1cccc2nn3c(C4CCNCC4)cc(=O)[nH]c3c12` [Example 53, 2-Oxo-4-(piperidin-4-yl)-1,2-dihydropyrimido[1,2-b]indazole-10-carbonitrile hydrochloride], the figure is 0.01 µM. The compound `O=c1cc(C2CCNCC2)n2nc3cccc(Br)c3c2[nH]1` [Example 60, 10-Bromo-4-(piperidin-4-yl)pyrimido[1,2-b]indazol-2(1H)-one hydrochloride] registered an IC50 of 0.014 µM. Regarding `O=c1cc(C2CCNCC2)n2nc3cccc(Cl)c3c2[nH]1` [Example 3, 10-Chloro-4-(piperidin-4-yl)pyrimido[1,2-b]indazol-2(1H)-one hydrochloride], the IC50 amounted to 0.028 µM.
